Data on 9 compounds can be found in PubChem BioAssay AID342 (DTP/NCI, 2004).

One may read the T/C as the result in the treated group divided by that in the control group, in per cent.

Each structure is given as a SMILES string. “And” between values parts separate entries of the source, which are not always exact repeats. Identical values can stand only once.

This experiment relates to Swiss mice, Sarcoma 180 sc, mean tumor weight T/C. Put plainly: NCI In Vivo Anticancer Drug Screen. Data for tumor model Sarcoma 180 (subcutaneous) in Swiss mice. The note with it: endpoint: mean tumor weight, higher = larger tumour. The essentials: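 Readout is the ratio of treated-group measurement to vehicle-control measurement (T/C), based on survival or tumor size in mice carrying transplanted tumors.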

Setting [1] is: dose: 125.0 mg/kg/injection, schedule: Q01DX007 (ip), vehicle: carboxymethylcellulose (CMC).
Setting [2] is: dose: 250.0 mg/kg/injection, schedule: Q01DX007 (ip), vehicle: carboxymethylcellulose (CMC).
The mark [3] stands for this setting: dose: 500.0 mg/kg/injection, schedule: Q01DX007 (ip), vehicle: carboxymethylcellulose (CMC).
The mark [4] stands for this setting: dose: 1000.0 mg/kg/injection, schedule: Q01DX007 (ip), vehicle: carboxymethylcellulose (CMC).

As for `Cc1nc2nc(N)nc(N)c2nc1C`, the T/C is 89 % of control (dose: 10.0 mg/kg/injection, schedule: Q01DX007 (ip), vehicle: carboxymethylcellulose (CMC)); 106 % of control (dose: 11.46 mg/kg/injection, schedule: Q01DX007 (ip), vehicle: carboxymethylcellulose (CMC)); 77 % of control (dose: 20.0 mg/kg/injection, schedule: Q01DX007 (ip), vehicle: carboxymethylcellulose (CMC)); 77 % of control (dose: 22.92 mg/kg/injection, schedule: Q01DX007 (ip), vehicle: carboxymethylcellulose (CMC)); 68 % of control (dose: 40.0 mg/kg/injection, schedule: Q01DX007 (ip), vehicle: carboxymethylcellulose (CMC)); 86 % of control (dose: 45.85 mg/kg/injection, schedule: Q01DX007 (ip), vehicle: carboxymethylcellulose (CMC)). In addition, the T/C was 81 % of control (dose: 80.0 mg/kg/injection, schedule: Q01DX007 (ip), vehicle: carboxymethylcellulose (CMC)) and 51 % of control (dose: 91.7 mg/kg/injection, schedule: Q01DX007 (ip), vehicle: carboxymethylcellulose (CMC)).

On to `NC(Cc1ccc(N(CCCl)CCCl)cc1)C(=O)O` (configuration not stated), for which the T/C reads like this: (dose: 0.45 mg/kg/injection, schedule: Q#A X014 (ip), vehicle: carboxymethylcellulose (CMC)) 68 % of control; (dose: 0.62 mg/kg/injection, schedule: Q#A X014 (ip), vehicle: carboxymethylcellulose (CMC)) 83 % of control; (dose: 0.81 mg/kg/injection, schedule: Q01DX007 (ip), vehicle: carboxymethylcellulose (CMC)) 81 % of control; (dose: 0.9 mg/kg/injection, schedule: Q#A X014 (ip), vehicle: carboxymethylcellulose (CMC)) 74 % of control; (dose: 1.0 mg/kg/injection, schedule: Q#A X014 (ip), vehicle: methylcellulose (MC)) 80 % of control; (dose: 1.08 mg/kg/injection, schedule: Q#A X014 (ip), vehicle: carboxymethylcellulose (CMC)) 76 % of control. The T/C (dose: 1.25 mg/kg/injection, schedule: Q#A X014 (ip), vehicle: carboxymethylcellulose (CMC)) was 78 % of control; the T/C (dose: 1.62 mg/kg/injection, schedule: Q01DX007 (ip), vehicle: carboxymethylcellulose (CMC)) is 78 % of control; the T/C (dose: 1.62 mg/kg/injection, schedule: Q#A X014 (ip), vehicle: carboxymethylcellulose (CMC)) was 78 % of control; the T/C (dose: 1.8 mg/kg/injection, schedule: Q#A X014 (ip), vehicle: carboxymethylcellulose (CMC)) was 60 % of control; the T/C (dose: 2.0 mg/kg/injection, schedule: Q#A X014 (ip), vehicle: methylcellulose (MC)) is 59 % of control; the T/C (dose: 2.16 mg/kg/injection, schedule: Q#A X014 (ip), vehicle: carboxymethylcellulose (CMC)) is 51 % of control. Also, the T/C reads like this: (dose: 2.5 mg/kg/injection, schedule: Q#A X014 (ip), vehicle: carboxymethylcellulose (CMC)) 47 % of control; (dose: 2.88 mg/kg/injection, schedule: Q01DX007 (ip), vehicle: carboxymethylcellulose (CMC)) 95 % of control; (dose: 3.25 mg/kg/injection, schedule: Q01DX007 (ip), vehicle: carboxymethylcellulose (CMC)) 32 % of control; (dose: 3.25 mg/kg/injection, schedule: Q#A X014 (ip), vehicle: carboxymethylcellulose (CMC)) 34 % of control; (dose: 3.6 mg/kg/injection, schedule: Q01DX007 (ip), vehicle: carboxymethylcellulose (CMC)) 62 % of control; (dose: 3.6 mg/kg/injection, schedule: Q#A X014 (ip), vehicle: carboxymethylcellulose (CMC)) 31 % of control. Further, the T/C (dose: 4.0 mg/kg/injection, schedule: Q#A X014 (ip), vehicle: methylcellulose (MC)) was 47 % of control; the T/C (dose: 4.8 mg/kg/injection, schedule: Q01DX007 (ip), vehicle: carboxymethylcellulose (CMC)) was 42 % of control; the T/C (dose: 5.0 mg/kg/injection, schedule: Q#A X014 (ip), vehicle: carboxymethylcellulose (CMC)) was 7 % of control; the T/C (dose: 7.2 mg/kg/injection, schedule: Q01DX007 (ip), vehicle: carboxymethylcellulose (CMC)) is 20 % of control; the T/C (dose: 8.0 mg/kg/injection, schedule: Q#A X014 (ip), vehicle: methylcellulose (MC)) is 14 % of control.

`Nc1ncnc2c1ncn2C1OC(CO)CC1O` (configuration not stated): the T/C by setting is: (dose: 37.0 mg/kg/injection, schedule: Q01DX007 (ip), vehicle: carboxymethylcellulose (CMC)) 104 % of control; (dose: 75.0 mg/kg/injection, schedule: Q01DX007 (ip), vehicle: carboxymethylcellulose (CMC)) 122 % of control; (dose: 150.0 mg/kg/injection, schedule: Q01DX007 (ip), vehicle: carboxymethylcellulose (CMC)) 80 % of control; (dose: 300.0 mg/kg/injection, schedule: Q01DX007 (ip), vehicle: carboxymethylcellulose (CMC)) 53 % of control.

For the compound `O=C(O)c1ccc(N=NSc2ncnc3nc[nH]c23)cc1O`, the T/C (dose: 0.2 mg/kg/injection, schedule: Q01DX007 (ip), vehicle: carboxymethylcellulose (CMC)) was 101 % of control; the T/C (dose: 0.5 mg/kg/injection, schedule: Q01DX007 (ip), vehicle: carboxymethylcellulose (CMC)) is 115 % of control; the T/C (dose: 1.0 mg/kg/injection, schedule: Q01DX007 (ip), vehicle: carboxymethylcellulose (CMC)) is 108 % of control; the T/C (dose: 8.0 mg/kg/injection, schedule: Q01DX007 (ip), vehicle: carboxymethylcellulose (CMC)) was 9 % of control.

As for `Cc1cc(NC(=O)c2ccc(N)cc2)ccc1N=Nc1ccc(N=Nc2ccc3c(O)cc(S(=O)(=O)O)cc3c2)c2cc(S(=O)(=O)O)ccc12`, the T/C is 110 % of control (dose: 12.5 mg/kg/injection, schedule: Q01DX007 (ip), vehicle: water); 97 % of control (dose: 25.0 mg/kg/injection, schedule: Q01DX007 (ip), vehicle: water); 62 % of control (dose: 50.0 mg/kg/injection, schedule: Q01DX007 (ip), vehicle: water).

On to `CC(=O)OCC(=O)[C@@]1(O)CC[C@H]2[C@@H]3C[C@H](C)C4=CC(=O)CC[C@]4(C)[C@H]3[C@@H](O)C[C@@]21C`, for which the T/C was 64 % of control (dose: 3.0 mg/kg/injection, schedule: Q#A X014 (sc), vehicle: steriod suspending solution); 77 % of control (dose: 6.25 mg/kg/injection, schedule: Q#A X014 (sc), vehicle: steriod suspending solution); 44 % of control (dose: 12.5 mg/kg/injection, schedule: Q01DX007 (sc), vehicle: steriod suspending solution); 48 % of control (dose: 12.5 mg/kg/injection, schedule: Q#A X014 (sc), vehicle: steriod suspending solution); 37 % of control (dose: 25.0 mg/kg/injection, schedule: Q01DX007 (sc), vehicle: steriod suspending solution); 43 % of control (dose: 25.0 mg/kg/injection, schedule: Q#A X014 (sc), vehicle: steriod suspending solution). The T/C is, setting by setting: (dose: 50.0 mg/kg/injection, schedule: Q01DX007 (sc), vehicle: steriod suspending solution) 32 % of control; (dose: 50.0 mg/kg/injection, schedule: Q#A X014 (sc), vehicle: steriod suspending solution) 28 % of control; (dose: 100.0 mg/kg/injection, schedule: Q01DX007 (sc), vehicle: steriod suspending solution) 25 % of control; (dose: 200.0 mg/kg/injection, schedule: Q01DX007 (sc), vehicle: steriod suspending solution) 15 % of control.

On to `CC(=O)Nc1cc2c(cc1[N+](=O)[O-])-c1ccccc1C2O` (configuration not stated), for which the T/C reads like this: (dose: 98.0 mg/kg/injection, schedule: Q01DX007 (ip), vehicle: other) 100 % of control; (dose: 148.0 mg/kg/injection, schedule: Q01DX007 (ip), vehicle: other) 120 % of control; (dose: 333.0 mg/kg/injection, schedule: Q01DX007 (ip), vehicle: other) 65 % of control and 67 % of control; (dose: 333.0 mg/kg/injection, schedule: Q01DX007 (ip), vehicle: saline) 81 % of control; (dose: 500.0 mg/kg/injection, schedule: Q01DX007 (ip), vehicle: other) 25 % of control; (dose: 500.0 mg/kg/injection, schedule: Q01DX007 (ip), vehicle: saline) 93 % of control. The T/C (dose: 750.0 mg/kg/injection, schedule: Q01DX007 (ip), vehicle: saline) was 64 % of control.

`CS(=O)(=O)OCC(O)C(O)COS(C)(=O)=O` (configuration not stated): the T/C is 74 % of control under setting [1], 65 % of control under setting [2], 51 % of control under setting [3] and 45 % of control under setting [4].

Consider `CC1NC(=O)NC1CCCCCC(=O)O` (configuration not stated), for which the T/C reads like this: under setting [1], 103 % of control; under setting [2], 73 % of control; under setting [3], 122 % of control; under setting [4], 105 % of control.
